# Assay results from ChEMBL document CHEMBL1201862, “PubChem BioAssay data set” (2004).
#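 Cultured in 96-well plates, cells were exposed to test compound for 48 hours across five concentrations. GI50 is the concentration that inhibits growth by half.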 Calls of active or inactive are those of the source. Rule as the data show it: active = GI50 up to about 1.1 µM and inactive = higher.
# Key:
# Experiment in all cases: growth of human tumour cells (NCI), 48 h
# PC-3 = system: PC-3
# LOX IMVI = system: LOX IMVI
# IGROV-1 = system: IGROV-1
# A549 = system: A549
# NCI-H460 = system: NCI-H460
# NCI-H23 = system: NCI-H23
# MCF7 = system: MCF7
# HT-29 = system: HT-29
# EKVX = system: EKVX
# SF-539 = system: SF-539
# COLO 205 = system: COLO 205
# Hs-578T = system: Hs-578T
# SNB-19 = system: SNB-19
# SK-MEL-28 = system: SK-MEL-28
# SK-MEL-5 = system: SK-MEL-5
# HOP-62 = system: HOP-62
# Malme-3M = system: Malme-3M
# SR = system: SR
# OVCAR-3 = system: OVCAR-3
# M14 = system: M14
# UACC-257 = system: UACC-257
# SK-MEL-2 = system: SK-MEL-2
# KM12 = system: KM12
# HOP-92 = system: HOP-92
# OVCAR-4 = system: OVCAR-4
# ACHN = system: ACHN
# MOLT-4 = system: MOLT-4
# BT-549 = system: BT-549
# UO-31 = system: UO-31
# NCI-H522 = system: NCI-H522
# U-251 = system: U-251
# TK-10 = system: TK-10
# T47D = system: T47D
# CAKI-1 = system: CAKI-1
# NCI-H226 = system: NCI-H226
# CCRF-CEM = system: CCRF-CEM
# SW-620 = system: SW-620
# 786-0 = system: 786-0
# MDA-MB-435 = system: MDA-MB-435
# SK-OV-3 = system: SK-OV-3
# UACC-62 = system: UACC-62
# MDA-N = system: MDA-N
# HCC 2998 = system: HCC 2998
# HCT-116 = system: HCT-116
# SF-295 = system: SF-295
# RXF 393 = system: RXF 393
# A498 = system: A498
# RPMI-8226 = system: RPMI-8226
# MDA-MB-231 = system: MDA-MB-231
# SF-268 = system: SF-268
# OVCAR-5 = system: OVCAR-5
# OVCAR-8 = system: OVCAR-8
# DU-145 = system: DU-145
# HCT-15 = system: HCT-15
# SNB-75 = system: SNB-75
# HL-60 = system: HL-60
# SN12C = system: SN12C
# NCI/ADR-RES = system: NCI/ADR-RES
# K562 = system: K562
smiles,measurement,setting,value
COc1ccc(Nc2n[nH]c(NS(=O)(=O)c3cc(C)c(Cl)cc3S)n2)cc1,GI50,PC-3,> 100 µM (inactive)
same,GI50,LOX IMVI,> 100 µM (inactive)
same,GI50,IGROV-1,> 100 µM (inactive)
same,GI50,A549,> 100 µM (inactive)
same,GI50,NCI-H460,> 100 µM (inactive)
same,GI50,NCI-H23,> 100 µM (inactive)
same,GI50,MCF7,> 100 µM (inactive)
same,GI50,HT-29,> 100 µM (inactive)
same,GI50,EKVX,> 100 µM (inactive)
same,GI50,SF-539,> 100 µM (inactive)
same,GI50,COLO 205,> 100 µM (inactive)
same,GI50,Hs-578T,> 100 µM (inactive)
same,GI50,SNB-19,> 100 µM (inactive)
same,GI50,SK-MEL-28,> 100 µM (inactive)
same,GI50,SK-MEL-5,> 100 µM (inactive)
same,GI50,HOP-62,> 100 µM (inactive)
same,GI50,Malme-3M,> 100 µM (inactive)
same,GI50,SR,> 100 µM (inactive)
same,GI50,OVCAR-3,> 100 µM (inactive)
same,GI50,M14,> 100 µM (inactive)
same,GI50,UACC-257,> 100 µM (inactive)
same,GI50,SK-MEL-2,> 100 µM (inactive)
same,GI50,KM12,> 100 µM (inactive)
same,GI50,HOP-92,> 100 µM (inactive)
same,GI50,OVCAR-4,> 100 µM (inactive)
same,GI50,ACHN,> 100 µM (inactive)
same,GI50,MOLT-4,> 100 µM (inactive)
same,GI50,BT-549,> 100 µM (inactive)
same,GI50,UO-31,> 100 µM (inactive)
same,GI50,NCI-H522,> 100 µM (inactive)
same,GI50,U-251,> 100 µM (inactive)
same,GI50,TK-10,> 100 µM (inactive)
same,GI50,T47D,> 100 µM (inactive)
same,GI50,CAKI-1,> 100 µM (inactive)
same,GI50,NCI-H226,> 100 µM (inactive)
same,GI50,CCRF-CEM,> 100 µM (inactive)
same,GI50,SW-620,> 100 µM (inactive)
same,GI50,786-0,> 100 µM (inactive)
same,GI50,MDA-MB-435,> 100 µM (inactive)
same,GI50,SK-OV-3,> 100 µM (inactive)
same,GI50,UACC-62,> 100 µM (inactive)
same,GI50,MDA-N,> 100 µM (inactive)
same,GI50,HCC 2998,> 100 µM (inactive)
same,GI50,HCT-116,> 100 µM (inactive)
same,GI50,SF-295,> 100 µM (inactive)
same,GI50,RXF 393,> 100 µM (inactive)
same,GI50,A498,> 100 µM (inactive)
same,GI50,RPMI-8226,> 100 µM (inactive)
same,GI50,MDA-MB-231,> 100 µM (inactive)
same,GI50,SF-268,> 100 µM (inactive)
same,GI50,OVCAR-5,> 100 µM (inactive)
same,GI50,OVCAR-8,> 100 µM (inactive)
same,GI50,DU-145,> 100 µM (inactive)
same,GI50,HCT-15,> 100 µM
same,GI50,SNB-75,> 100 µM (inactive)
same,GI50,HL-60,> 100 µM (inactive)
same,GI50,SN12C,> 100 µM (inactive)
same,GI50,NCI/ADR-RES,> 100 µM (inactive)
same,GI50,K562,> 100 µM (inactive)
NC(=O)SCCC(N)C(=O)O (stereo not drawn),GI50,PC-3,> 100 µM (inactive)
same,GI50,LOX IMVI,> 100 µM (inactive)
same,GI50,IGROV-1,> 100 µM (inactive)
same,GI50,A549,> 100 µM (inactive)
same,GI50,NCI-H460,> 100 µM (inactive)
same,GI50,NCI-H23,> 100 µM (inactive)
same,GI50,MCF7,> 100 µM (inactive)
same,GI50,HT-29,> 100 µM (inactive)
same,GI50,EKVX,> 100 µM (inactive)
same,GI50,SF-539,> 100 µM (inactive)
same,GI50,COLO 205,> 100 µM (inactive)
same,GI50,Hs-578T,> 100 µM (inactive)
same,GI50,SNB-19,> 100 µM (inactive)
same,GI50,SK-MEL-28,> 100 µM (inactive)
same,GI50,SK-MEL-5,> 100 µM (inactive)
same,GI50,HOP-62,> 100 µM (inactive)
same,GI50,Malme-3M,> 100 µM (inactive)
same,GI50,SR,> 100 µM (inactive)
same,GI50,OVCAR-3,> 100 µM (inactive)
same,GI50,M14,> 100 µM (inactive)
same,GI50,UACC-257,> 100 µM (inactive)
same,GI50,SK-MEL-2,> 100 µM (inactive)
same,GI50,KM12,> 100 µM (inactive)
same,GI50,HOP-92,> 100 µM (inactive)
same,GI50,OVCAR-4,> 100 µM (inactive)
same,GI50,ACHN,> 100 µM (inactive)
same,GI50,MOLT-4,> 100 µM (inactive)
same,GI50,BT-549,> 100 µM (inactive)
same,GI50,UO-31,> 100 µM (inactive)
same,GI50,NCI-H522,> 100 µM (inactive)
same,GI50,U-251,> 100 µM (inactive)
same,GI50,TK-10,> 100 µM (inactive)
same,GI50,T47D,> 100 µM (inactive)
same,GI50,CAKI-1,> 100 µM (inactive)
same,GI50,NCI-H226,> 100 µM (inactive)
same,GI50,CCRF-CEM,> 100 µM (inactive)
same,GI50,SW-620,> 100 µM (inactive)
same,GI50,786-0,> 100 µM (inactive)
same,GI50,MDA-MB-435,> 100 µM (inactive)
same,GI50,SK-OV-3,> 100 µM (inactive)
same,GI50,UACC-62,> 100 µM (inactive)
same,GI50,MDA-N,> 100 µM (inactive)
same,GI50,HCC 2998,> 100 µM (inactive)
same,GI50,HCT-116,> 100 µM (inactive)
same,GI50,SF-295,> 100 µM (inactive)
same,GI50,RXF 393,> 100 µM (inactive)
same,GI50,A498,> 100 µM (inactive)
same,GI50,RPMI-8226,> 100 µM (inactive)
same,GI50,MDA-MB-231,> 100 µM (inactive)
same,GI50,SF-268,> 100 µM (inactive)
same,GI50,OVCAR-5,> 100 µM (inactive)
same,GI50,OVCAR-8,> 100 µM (inactive)
same,GI50,DU-145,> 100 µM (inactive)
same,GI50,HCT-15,> 100 µM
same,GI50,SNB-75,> 100 µM (inactive)
same,GI50,HL-60,> 81.3 µM (inactive)
same,GI50,SN12C,> 100 µM (inactive)
same,GI50,NCI/ADR-RES,> 100 µM (inactive)
same,GI50,K562,> 100 µM (inactive)
